# Reference: ChEMBL document CHEMBL3507680, “University of Dundee, Gates Library screen for HepG2 cell viability”
# Test: Human HepG2 cell viability assay in 384 well format
# Assay type: toxicity, cell-based
# Parameters: dose 125 nL, time 70.5 hour; cytotoxicity at 70.5 h: concentration not given beside the values
# Settings: HepG2 cells, read-out: Inhibition
row,Compound,cytotoxicity at 70.5 h [%]
1,COCCCNC(=O)c1cc(C(C)C)nc(N2CCCC2)n1,-10.1
2,CN(c1ccc2ccccc2c1)S(=O)(=O)c1cc(C(=O)O)cs1,-8.18
3,O=C(Cn1nc2c(cc1=O)CCCC2)NC(C(=O)O)c1ccccc1 (configuration not stated),-12.2
4,COCCC(=O)N1CCC2(COCc3cnc(N(C)C)nc32)C1 (configuration not stated),-8.65
5,Cc1nccnc1CN1CCC2(CCCN(C3CCOCC3)C2=O)C1 (configuration not stated),-2.69
6,O=C(Cc1ccccc1)NCCNCc1cccc(O)c1,36.6
7,Cn1c(C2CC2)nc2c1CCN(CCc1ccccn1)C2,-5.41
8,COCCN1CCCC2(CCN(c3nc(C)nc4c3CCC4)C2)C1=O (configuration not stated),-4.89
9,CCCc1cc(C(=O)N2C[C@H](O)[C@@H](N3CCCC3)C2)ccn1,16.4
10,Cc1ccc(N(CCC#N)C(=O)CCc2cccnc2)cc1C,-5.18
11,Cc1noc(CCCC(=O)N2CCCCC2CNS(C)(=O)=O)n1 (configuration not stated),-9.36
12,Cc1ccc(N2CCN(CC3CC3)C3(CCN(C(C)C)CC3)C2=O)cn1,-5.52
13,c1coc(CN2C[C@@H]3OCCN(CC4CCCO4)[C@@H]3C2)c1 (some centres not stated),-11.5
14,COc1ccc(CN2CC(n3cccn3)C2)cc1F,-2.24
15,CC(C)c1nc(C2CCCN(Cc3nnc(C4CC4)o3)C2)no1 (configuration not stated),-8.01
16,Cc1cc(C(=O)N[C@@H]2CCC[C@@H](N3CCOCC3)[C@@H]2O)no1,-6.42
17,CN(C)C(=O)c1ccc2c(c1)nc(N1CC[C@H](O)C1)n2C,19.5
18,CC(=O)N1CCN(C)CC(COCc2ccccc2)C1 (configuration not stated),-3.41
19,CS(=O)(=O)CCNC(=O)c1ccc(-c2ccco2)[nH]c1=O,1.54
20,CC(C)c1nc(Cn2cncn2)n(-c2ccccn2)n1,-4.77
21,O=C(c1cnc(NCc2cccnc2)c(Cl)c1)N1CCCCC1,-12.2
22,CCCc1nc(C(=O)N[C@H]2COC[C@@H]2N2CCN(C)CC2)cs1,-7.8
23,O=C1C(N2CC[C@@H](O)C2)CCCN1Cc1cccc(C(F)(F)F)c1 (some centres not stated),-18.9

row,Compound,cytotoxicity at 70.5 h [%]
1,NC(=O)NC(=O)CCn1ccc(-c2ccsc2)n1,-1.15
2,Cc1nccc(C(=O)N2CCCC2c2noc(C(C)C)n2)n1 (configuration not stated),22.8
3,Cc1cccc(CN2CCC(N(C)Cc3nnc(C4CC4)n3C)C2)c1 (configuration not stated),-1.59
4,Cc1noc([C@H]2C[C@@H]3CCN(CC4CC4)C[C@H]3O2)n1,-7.86
5,CN(C)c1ccc(C(=O)NCc2cccnc2-n2cncn2)cc1F,-17.5
6,Cc1cccc(CC2CCCN(C(=O)Cc3csc(C)n3)C2)n1 (configuration not stated),-10.5
7,CC(NC(=O)N1CCC2(C1)OCCO2)c1cccc(Cl)c1 (configuration not stated),-4.94
8,O=C(CCc1ccc2c(c1)CCO2)Nc1nnn[nH]1,-6.65
9,CCc1ccc(-c2nn3c(nc2=O)-c2ccccc2NC3C(=O)O)cc1 (configuration not stated),-10.4
10,CCNS(=O)(=O)c1cnccc1N1CCN(CCO)CC1,4.82
11,Cc1ccc(C)c(-n2nnnc2SCN2CCCCC2=O)c1,-3.06
12,CC1CCN(Cc2c(C(C)C)[nH]c3ncccc23)CC1,-8.35
13,CCc1cccc(N2CCC(NC(=O)c3ccco3)CC2)c1,-3.29
14,CCCC(=O)N1CCCCC1c1nccc(C)n1 (configuration not stated),8.32
15,O=C(COc1cccc2c1CCC2=O)NCCc1cccs1,12.1
16,Cc1cc(C)c(N(CC(O)CNCc2ccco2)S(C)(=O)=O)c(C)c1 (configuration not stated),-7.18
17,CCCn1ncc(CN2CCCC(C(=O)c3ccc(SC)cc3)C2)c1C (configuration not stated),-9.31
18,COCC(=O)N1CCC(C)(c2cc(O)[nH]n2)CC1,0.0821
19,Cc1ccc(C(=O)O)cc1S(=O)(=O)Nc1nn(-c2ccccc2)cc1C,-0.199
20,CC(NC(=O)Cn1cc(-c2ccccc2)cn1)C1CC1 (configuration not stated),-6.64
21,CCn1c(N)nc2cc(C(=O)NCc3ccccc3Cl)cnc21,0.502
22,Cn1cccc1C(=O)N1CC[C@H]2[C@@H]1CCC(=O)N2CC1CC1,3.01
23,c1ccc(C(CC2CN(Cc3ncc[nH]3)CCO2)c2ccccc2)cc1 (configuration not stated),0.214

row,Compound,cytotoxicity at 70.5 h [%]
1,Cc1cnn(CC2CCCN2Cc2coc(-c3ccccc3)n2)c1 (configuration not stated),13.5
2,CN(CC1(CO)CC1)C(=O)C1CCC(=O)N(Cc2ccc(Cl)cc2)C1 (configuration not stated),-1.51
3,CN1C[C@H](O)C[C@H]1c1nc(-c2ccc3c(c2)OCO3)no1,-0.612
4,Cc1ncc(CN2CCN(C(=O)N(C)C)[C@@H]3CS(=O)(=O)C[C@@H]32)cn1,-26.5
5,COCC1c2c(cnn2C)CCN1Cc1ccc(C)o1 (configuration not stated),-18.3
6,CCn1c(NCc2ccco2)nc2c(C)nn(C)c2c1=O,31.6
7,CN(C)CC1(O)CCCN(c2ccnc3c(C(F)(F)F)cccc23)C1 (configuration not stated),-5.96
8,Cc1ccc(C2(O)CCN(C(=O)CCn3c(C)cccc3=O)CC2)nc1,27.8
9,CN(C)C(=O)NC1COC2(CCN(C(=O)c3ccc(Cl)cc3)CC2)C1 (configuration not stated),-8.31
10,CC(C)CNC(=O)c1nc2c(s1)CCN(C(=O)c1cccnc1)CC2,-4.69
11,O=C1CCCN1Cc1ncn2c1CN(C(=O)c1cccc(F)c1)CCC2,-13.4
12,O=C(NCc1ccco1)N1CCC(n2ccc(C(F)(F)F)n2)CC1,-82.9
13,Cc1ncoc1C(=O)N1CCOC(CC2CCCCC2)C1 (configuration not stated),-5.24
14,Cn1cc(C2COC3(CCN(C(=O)c4ccsc4)CC3)C2)cn1 (configuration not stated),-15.9
15,O=C(NCCc1ccccc1)N1C[C@H]2C[C@H](C(=O)N3CCCC3)[C@@H](C1)O2,0.399
16,O=C(N1CCC(Oc2ccncc2)CC1)C1(c2ccc(F)cc2)CC1,-3.22
17,Cc1cnn(CCNCc2ccc(OCc3cscn3)cc2)c1,-6.84
18,Clc1cccc2c1CCN(Cc1nc(CC3CC3)no1)C2,-5.71
19,CC(Cn1cncc1-c1cnn(C2CCCCC2)c1)N1CCCCC1 (configuration not stated),25
20,Cc1c(C(=O)NC2=NCCS2)cnn1-c1ccc(Br)cc1,-15
21,O=C([C@H]1C[C@@H]2CCN(C3CCOCC3)C[C@@H]2O1)N1CCOCC1,-5.58
22,N#Cc1cn[nH]c1NCc1cc(I)cc(I)c1O,-9.83
23,COc1ccc(F)c(CN2CCCC(O)(CNCc3ccon3)C2=O)c1 (configuration not stated),8.61

row,Compound,cytotoxicity at 70.5 h [%]
1,COC(=O)CNC(=O)C(C(C)C)n1cnc2cc(F)c(F)cc21 (configuration not stated),5.81
2,Cn1cc(CN2C[C@H](Oc3ncccc3F)[C@H]3OCCC[C@H]32)cn1,-10.3
3,COCCNC(=O)Cc1cnc(-n2cccc2)s1,-22.5
4,CN(C)c1ncc(I)c(C2CCCN2C)n1 (configuration not stated),1.48
5,CC1(c2nccs2)CCN(C(=O)CC2CCOCC2)CC1,-9.57
6,N#Cc1cccc(Cl)c1NC1CCN(CC(N)=O)CC1,-106
7,Cc1cc(C)n(CC2CN(Cc3noc(C4CC4)n3)CCO2)n1 (configuration not stated),-6.69
8,O=C(NCCN1CCCC1)C1(c2ccc(Cl)cc2)CCOCC1,-3
9,CC(C)(C)c1cnc(CN2CCC(NC(=O)CC3CCCC3)CC2)o1,14
10,O=C(CCNc1ncccn1)NCCc1ccn(-c2ccccc2)n1,22
11,FC(F)(F)CCc1ccnc(N2CCN(CCc3ccncc3)CC2)n1,-6.22
12,COc1nccc(N2CCN(Cc3ccc(C)cc3)C(=O)C2)c1C#N,1.75
13,COc1cc(C2SCC(=O)Nc3n[nH]cc32)cc(OC)c1O (configuration not stated),-19.7
14,CCc1cc(NCc2cc3n(n2)CCCN(S(C)(=O)=O)C3)nc(C)n1,-6.87
15,CCSCCC(C)N(C)C(=O)c1ccc2nncn2c1 (configuration not stated),-4.21
16,Cn1cc(C(=O)NCc2ccc(OC3CCCCC3)nc2)ccc1=O,-7.34
17,O=C(c1ccnnc1)N1C[C@H]2CN(Cc3cccc(F)c3)C(=O)[C@H]2C1,-13.7
18,COCCNCc1cc2ccc(C)c(C)c2[nH]c1=O,4.37
19,CCc1nc2c(N3CCCC(c4nccn4CCOC)C3)ncnc2o1 (configuration not stated),26.1
20,COCCO[C@@H]1CCN(C(=O)c2ccc(C)o2)[C@@H]1Cc1cccnc1,4.05
21,O=C1[C@H]2CN(c3ncccn3)C[C@H]2CN1CCN1CCCC1,-47.2
22,C(=C\c1ccccc1)/CNCC1CCc2nncn2C1 (configuration not stated),5.32
23,CC(=O)N[C@@H]1CN(Cc2ccccc2-n2cccn2)C[C@H]1C(C)C,-4.08

row,Compound,cytotoxicity at 70.5 h [%]
1,CNC(=O)c1cccc(CNC2CCCSc3ccccc32)c1 (configuration not stated),-5.82
2,COc1ccccc1CN(C)C(=O)CN1C(=O)OC[C@@H]1c1ccccc1,19.7
3,c1cncc(-c2noc(CN3CCc4cncnc4C3)n2)c1,-12.6
4,Cc1ccc(CN2CC[C@H]3O[C@@H](C(=O)N4CCCO4)CC[C@H]32)s1,-4
5,O=C(CCc1ccc2c(c1)OCO2)Nc1cccnc1-n1cncn1,-2.15
6,COc1ncccc1CN1C[C@H]2CCN(c3ncccn3)C[C@H]2C1,1.43
7,CC(CNC(=O)c1ccccc1Oc1cccnc1)N(C)C (configuration not stated),-6.12
8,COCc1noc(-c2ccc(N3CCC[C@H]3CO)nc2)n1,-7.06
9,O=C(N1CCCC1)N1CCc2ncnc(C3CCOC3)c2CC1 (configuration not stated),-9.08
10,CCCN(Cc1nnnn1C1CC1)CC1COc2ccccc2O1 (configuration not stated),0.609
11,Cc1ccccc1CS(=O)(=O)CC(=O)N(C)Cc1ccccc1F,-1.24
12,CSC1=Nc2c(cnn2-c2ccc(C)cc2)C2=NCCCN12,-10.1
13,N#Cc1ccnc(NCc2cc3n(n2)CCCN(C(=O)C2CCC2)C3)c1,1.71
14,CC(CC(=O)N1CCCN(Cc2cscn2)CC1)n1cccc1 (configuration not stated),-6.05
15,CCn1nc(C)c2c1cnn2CC(=O)N1CCN(C)CC1,-1.92
16,CN(Cc1n[nH]c(=O)n1Cc1cccs1)S(C)(=O)=O,-0.816
17,c1cnnc(N2CCCC2CNCc2nc(-c3ccsc3)no2)c1 (configuration not stated),-20.3
18,CN(Cc1ccncc1)C1COC2(CCN(Cc3nccn3C)CC2)C1 (configuration not stated),-8.93
19,CCOc1ccccc1-c1cc(N)[nH]n1,-5.47
20,CCOC1CCN(C(=O)c2cnn(-c3ccccc3Cl)c2)CC1,2.04
